Reference: patent US20260102420A1, “CANCER IMMUNOTHERAPY” (Hoffmann-La Roche Inc., priority 2022, published 2026)

Columns and labels:
[1] = test system: MKN45; assay: T cell-mediated killing assay, MKN45 pre-treated with compound, co-culture with T cells and TCBs; assay type: cell-based, human; conditions: MKN45 pre-treated 2 h, compound removed, T cells and TCBs added; FIGS. 9B and 9C
Experimental: (§1) FIGS. 9A, 9B, 9C, 9D, and 9E. UAP1 inhibition with Ac4Glc2Bz in tumor cells improves T cell-mediated killing and T cell activation. FIG. 9A: Detection of UDP-HexNAc in MKN45 cell lysates after 2h treatment with Ac4Glc2Bz. FIGS. 9B and 9C: MKN45 were pre-treated with the indicated concentrations of Ac4Glc2Bz for 2 h. Afterwards, the compound was removed from the culture and T cells were added alongside TCBs at the indicated concentrations. Graphs show the % of remaining tumor cells after 105h from co-culture. DP47 TCB was used as negative control. FIGS. 9D and 9E: Flow cytometry of CD3+ T cells from the experiments in FIGS. 9B and 9C. T cell activation was assessed as previously described.
25000 MKN45-nuclight red (NLR), 20000 A549-hCEA and 10000 B16F10-NLR tumor cells (wt or UAP1 ko) were seeded in one well of a 96 well-plate. Afterwards TCBs or siinfekl were given at the indicated concentrations. Pan T cells or PBMCs, mouse splenocytes (from C57/BL6 or OT-I mice) were immediately added at the indicated E:T ratios. Co-cultures were incubated at 37° C. and 5% C02 in the Incucye S3 instrument (Sartorius) for the indicated time. […] For MKN45-NLR and B16F10-NLR, T cell-mediated killing was calculated based on the red fluorescent signal coming from the tumor cells. All values were first transformed to fold-change to time 0, and % specific lysis was calculated as follows: […]

[2] = target: T1, UAP1 (Homo sapiens, UniProt Q16222); assay: Detection of UDP-HexNAc by LC-MS in MKN45 cell lysates after 2h treatment; assay type: cell-based; conditions: MKN45 pre-treated for 2h, FIG. 9A
T1 construct: endogenous in cells; host or cells: MKN45 (human gastric adenocarcinoma cell line), wild type
Experimental: as §1
For the preparation of calibration samples Uridine-5′-diphospho-N-acetylglucosamine sodium salt was dissolved in an 80/20 mixture of water/methanol (v/v) to a concentration of 1.00 mg/ml. A stock solution for the preparation of QC samples was prepared separately using the same procedure with separate weighing of the reference substance. Further dilutions were done in water. For calibration and quality control samples, eight and three different concentrations of Uridine-5′-diphospho-N-acetylglucosamine (UDP HExNAc) spiked into phosphate-buffered saline (PBS) were used, respectively. Two different calibration ranges were applied. […]

[3] = test system: CD3+ T cells; assay: T cell activation (CD25/CD69) by flow cytometry after co-culture with pre-treated MKN45; assay type: cell-based, human; conditions: CD3+ T cells from the same co-cultures; FIGS. 9D and 9E
Experimental: as §1
T cell-mediated killing assay was performed as described above. At the end of the experiment, T cells were collected from the co-culture plates and subjected to immunofluorescence for the following markers: CD3, CD8, CD25, CD69 and Near-IR live/dead staining (Thermo Scientific). Cells were gated on live CD3^+ cells and % Activated cells was calculated as such: […]. For the proliferation assay, T cells were pre-stained with CFSE (Biolegend) according to manufacturer's instructions, and then used in a T cell-mediated killing assay with either MKN45-NLR wt or MKN45-NLR KO cells for 4 days. Afterwards, cells were harvested and CFSE was assessed by FACS. […]

T1 sequence (Q16222 whole entry): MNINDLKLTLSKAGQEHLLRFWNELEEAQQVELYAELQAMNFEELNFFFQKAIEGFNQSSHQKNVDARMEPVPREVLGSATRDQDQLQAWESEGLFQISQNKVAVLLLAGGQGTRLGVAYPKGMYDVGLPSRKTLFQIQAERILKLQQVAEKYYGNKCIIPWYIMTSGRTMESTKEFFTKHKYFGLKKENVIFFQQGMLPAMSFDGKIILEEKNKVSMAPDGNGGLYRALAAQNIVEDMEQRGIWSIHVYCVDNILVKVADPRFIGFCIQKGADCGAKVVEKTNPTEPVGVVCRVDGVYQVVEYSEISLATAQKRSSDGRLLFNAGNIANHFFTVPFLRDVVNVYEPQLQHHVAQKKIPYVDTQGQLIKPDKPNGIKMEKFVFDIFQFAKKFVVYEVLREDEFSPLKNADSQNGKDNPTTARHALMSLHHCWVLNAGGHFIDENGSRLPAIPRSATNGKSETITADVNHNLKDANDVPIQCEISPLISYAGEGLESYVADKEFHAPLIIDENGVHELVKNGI

CC(=O)OCC1OC(OC(C)=O)C(NC(=O)c2ccccc2)C(OC(C)=O)[C@@H]1OC(C)=O (stereo partly drawn) [Ac4Glc2Bz]
T cell mediated killing [1]: increased T cell mediated killing
inhibition of UAP1 (UDP-HexNAc detection) [2]: dose-dependent inhibition of UAP1
T cell activation [3]: increased
